Data set [1] relates to PBMC. In words: Anti-inflammatory activity in human PBMC assessed as inhibition of LPS-induced TNFalpha production at 10 uM after 24 hrs by ELISA relative to control. Type of data set: functional. A general note: ELISA stands for enzyme-linked immunosorbent assay.
For data set [2], the system named is PBMC. Kind of data set: Anti-inflammatory activity in human PBMC assessed as inhibition of LPS-induced IL-1beta production at 10 uM after 24 hrs by ELISA relative to control. Type of data set: functional.
Data set [3] is described as follows: Cytotoxicity against human PBMC assessed as cell viability at 10 um after 24 hrs by WST-1 assay relative to control. It counts as cell-based. The following applies: PBMC (peripheral blood mononuclear cells), read-out: Activity. (Formazan colour is commonly taken as a measure of viable cells.)
For data set [4], the system named is Mus musculus. In words: Antiallodynic activity in C57BL/6J mouse model of sciatic nerve ligation-induced neuropathic pain assessed as increase in paw withdrawal latency time at 1 mg/kg, ip bid for 17 consecutive days starting from 2 to 3 weeks post surgery by Von Frey test. It counts as functional, organism-based.
Data set [5] has as its system Mus musculus. In words: Antiallodynic activity in C57BL/6J mouse model of sciatic nerve ligation-induced neuropathic pain assessed as increase in paw withdrawal latency time at 5 mg/kg, ip bid for 17 consecutive days starting from 2 to 3 weeks post surgery measured on day 11 during compound dosing by Von Frey test. It counts as functional, organism-based.
Data set [6] has as its system PBMC. In words: Anti-inflammatory activity in human PBMC assessed as inhibition of LPS-induced TNFalpha production after 24 hrs by ELISA. Type of data set: functional, cell-based.
The subject of data set [7] is PBMC. Kind of data set: Anti-inflammatory activity in human PBMC assessed as inhibition of LPS-induced IL-1beta production after 24 hrs by ELISA. Type of data set: functional, cell-based.
Data set [8] concerns Mus musculus. Kind of data set: Anti-inflammatory activity in LPS-induced acute lung inflammation C57BL/6 mouse model assessed as inhibition of neutrophils recruitment in BALF at 5 mg/kg, ip bid administered 1 hr before and 10 hrs after LPS treatment measured 24 hrs post LPS treatment by flow cytometry relative to control. Type of data set: functional. The following applies: C57BL/6, ip. A general note: A flow cytometer gives signals particle by particle.

The subject of data set [9] is Mus musculus. Kind of data set: Anti-inflammatory activity in LPS-induced acute lung inflammation C57BL/6 mouse model assessed as inhibition of lymphocytes recruitment in BALF at 5 mg/kg, ip bid administered 1 hr before and 10 hrs after LPS treatment measured 24 hrs post LPS treatment by flow cytometry relative to control. Type of data set: functional. Particulars: C57BL/6, ip.

The subject of data set [10] is Mus musculus. In words: Anti-inflammatory activity in LPS-induced acute lung inflammation C57BL/6 mouse model assessed as inhibition of TNFalpha level in BALF at 5 mg/kg, ip bid administered 1 hr before and 10 hrs after LPS treatment measured 24 hrs post LPS treatment by ELISA relative to control. Type of data set: functional. Particulars: C57BL/6, ip.
Data set [11] relates to Mus musculus. In words: Toxicity in C57BL/6 mouse assessed as effect on number of inflammatory cells recovered in BALF at 5 mg/kg, ip bid administered 1 hr before and 10 hrs after LPS treatment measured 24 hrs post LPS treatment by flow cytometry. It counts as organism-based. Particulars: in vivo.
Data set [12] relates to Mus musculus. In words: Antiallodynic activity in C57BL/6J mouse model of sciatic nerve ligation-induced neuropathic pain assessed as increase in paw withdrawal latency time at 1 mg/kg, ip bid for 17 consecutive days starting from 2 to 3 weeks post surgery measured on day 16 during compound dosing by Von Frey test. Type of data set: functional, organism-based.
For data set [13], the system named is Mus musculus. In words: Toxicity in C57BL/6J mouse model of sciatic nerve ligation-induced neuropathic pain assessed as behavioral changes at 1 to 5 mg/kg, ip bid for 17 consecutive days starting from 2 to 3 weeks post surgery. Type of data set: organism-based. Particulars: in vivo.
Data set [14] has as its system Mus musculus. In words: Toxicity in C57BL/6J mouse model of sciatic nerve ligation-induced neuropathic pain assessed as body weight loss at 5 mg/kg, ip bid for 17 consecutive days starting from 2 to 3 weeks post surgery relative to control. It counts as organism-based. The following applies: in vivo.
For data set [15], the system named is Mus musculus. Kind of data set: Toxicity in C57BL/6J mouse model of sciatic nerve ligation-induced neuropathic pain assessed as body weight loss at 1 mg/kg, ip bid for 17 consecutive days starting from 2 to 3 weeks post surgery. Particulars: in vivo. Type of data set: organism-based.

We go through 33 compounds from ChEMBL document CHEMBL4145539, “Phenylpyridine-2-ylguanidines and rigid mimetics as novel inhibitors of TNFα overproduction: Beneficial action in models of neuropathic pain and of acute lung inflammation” (Eur J Med Chem, 2018).

Calls of active or inactive are those of the source. The calls are words filed in the database; no cut-off is given here.

For `N=C(N)Nc1cc(-c2ccc(Cl)cc2)ccn1`, the inhibition at 10 µM in data set [1] came out at 69%; in [2], 97%. Also, in [3], the viability at 24 h, 10 µM amounted to 24%.

Regarding `N=C(N)Nc1cc(-c2ccccc2Cl)ccn1`, the figures for the inhibition at 10 µM in data set [1] and in [2] were 65% and 23%, respectively. The viability at 24 h, 10 µM in [3] was 42%.

Take `CNCCC=C1c2ccccc2CCc2ccccc21`: in data set [4], the result was inactive. Besides, the result in [5] was Active.

On to `N=C(N)Nc1cccc(-c2ccc(Cl)cc2)n1`, for which the inhibition at 10 µM in [1] is 72%; in data set [2], 77%. Besides, the viability at 24 h, 10 µM in data set [3] was 35%.

Turning to `N=C(N)Nc1cccc(-c2ccccc2)n1`, the inhibition at 10 µM turned out to be 18% in data set [1] and 3% in data set [2]. For the same compound, the half-inhibitory concentration (IC50) in data set [6] was 18.6 µM; in [7] it was over 30 µM. For the same compound, the viability at 24 h, 10 µM in data set [3] was found to be 100%.

On to `COc1ccc(-c2ccc(NC(=N)N)nc2)cc1`, for which the results for the inhibition at 10 µM in data set [1] and in data set [2] were 58% and 48%, respectively. Also, the viability at 24 h, 10 µM in [3] worked out at 34%.

For the compound `NC1=Nc2cccc(-c3ccccc3)c2CN1`, the inhibition at 10 µM was found to be 7% in data set [1] and 0% in [2]. The viability at 24 h, 10 µM in data set [3] was found to be 111%.

As to `NC(=S)Nc1cc(-c2ccccc2)ccn1`, the results for the inhibition at 10 µM in data set [1] and in data set [2] were 4% and 1%, respectively. Further, the viability at 24 h, 10 µM in data set [3] amounted to 86%.

Consider `N=C(N)Nc1ncccc1-c1ccccc1`, for which the inhibition at 10 µM in data set [1] was 11%; in [2], 1%. The viability at 24 h, 10 µM in [3] came to 108%.

Consider `N=C(N)Nc1ccc(-c2ccc(Cl)cc2)cn1`, for which the inhibition at 10 µM worked out at 72% in data set [1] and 97% in [2]. In [3], the viability at 24 h, 10 µM stood at 23%.

As for `COc1cccc(-c2cccc(NC(=N)N)n2)c1`, the inhibition at 10 µM came to 7% in data set [1] and 2% in data set [2]. Also, the viability at 24 h, 10 µM in [3] came to 104%.

On to `NC1=Nc2cc(-c3ccccc3)ccc2CCN1`, for which the inhibition at 10 µM in data set [1] was -7%; in data set [2], -4%. The viability at 24 h, 10 µM in [3] came out at 100%.

For `Nc1nc2ccc(-c3ccccc3)cc2[nH]1`, the inhibition at 10 µM amounted to 15% in [1] and 3% in [2]. In data set [3], the viability at 24 h, 10 µM was 114%.

Consider `N=C(N)Nc1cc(-c2ccc(C(F)(F)F)cc2)ccn1`, for which the inhibition at 10 µM in [1] turned out to be 71%; in data set [2], 98%. The viability at 24 h, 10 µM in data set [3] is 24%.

On to `COc1ccccc1-c1ccnc(NC(=N)N)c1`, for which the inhibition at 10 µM in [1] was 10%; in data set [2], -1%. For the same compound, the viability at 24 h, 10 µM in data set [3] was determined as 99%.

As to `COc1ccccc1-c1cccc(NC(=N)N)n1`, the inhibition at 10 µM in data set [1] turned out to be 7%; in data set [2], 1%. Besides, in [3], the viability at 24 h, 10 µM is 106%.

For the compound `NC1=Nc2cc(-c3ccccc3)ccc2CN1`, the inhibition at 10 µM in data set [1] is 76%; in data set [2], 93%. The IC50 in [6] is 1 µM; in data set [7], 3.7 µM. Also, the viability at 24 h, 10 µM in data set [3] was determined as 81%. The inhibition in vivo at 5 mg/kg in data set [8] was 62%; in data set [9], 63%; in [10], 49%. The Activity entry in [11] and in data set [13] was “Non-Toxic” each time. Moreover, the result in data set [5] and in data set [12] was Active.

In the case of `COc1ccc(C2CNC(=O)C2)cc1OC1CCCC1` (centres undefined) [ROLIPRAM], the inhibition at 10 µM in [1] turned out to be 79%. In addition, the IC50 in data set [6] was determined as 0.13 µM. Further, in [3], the viability at 24 h, 10 µM is 104%.

On to `N=C(N)Nc1cc(-c2cccc(Cl)c2)ccn1`, for which the inhibition at 10 µM in data set [1] is 64%; in [2] it was 53%. In addition, the viability at 24 h, 10 µM in data set [3] came to 38%.

Regarding `N=C(N)Nc1ccc(-c2cccc(Cl)c2)cn1`, the inhibition at 10 µM in data set [1] was 52%; in data set [2], 8%. Further, the figures for the IC50 in [6] and in [7] were 5.5 µM and 17.5 µM, respectively. Besides, in data set [3], the viability at 24 h, 10 µM was 94%.

For the compound `COc1cccc(-c2ccnc(NC(=N)N)c2)c1`, the inhibition at 10 µM in data set [1] was 56%; in data set [2] it was 29%. In data set [3], the viability at 24 h, 10 µM is 66%.

For the compound `N=C(N)Nc1ccc(-c2ccccc2)cn1`, the inhibition at 10 µM was -9% in data set [1] and -1% in data set [2]. For the same compound, the viability at 24 h, 10 µM in data set [3] was found to be 97%.

As to `NC1=Nc2ccc(-c3ccccc3)cc2CN1`, the inhibition at 10 µM in data set [1] was 22%. Further, in data set [3], the viability at 24 h, 10 µM is 90%.

With `COc1ccccc1-c1ccc2c(c1)CNC(N)=N2`, the figures for the inhibition at 10 µM in data set [1] and in [2] were 13% and 1%, respectively. The viability at 24 h, 10 µM in [3] was 126%.

On to `COc1ccccc1-c1ccc(NC(=N)N)nc1`, for which the inhibition at 10 µM in [1] amounted to 56%; in [2], 4%. Also, the figures for the 50% inhibitory concentration (IC50) in data set [6] and in data set [7] were 7.7 µM and over 30 µM, respectively. In addition, the viability at 24 h, 10 µM in data set [3] is 78%.

Regarding `N=C(N)Nc1ccc(-c2ccccc2Cl)cn1`, the values for the inhibition at 10 µM in data set [1] and in data set [2] were 82% and 96%, respectively. Further, the viability at 24 h, 10 µM in data set [3] came out at 55%.

As to `COc1ccc(-c2ccnc(NC(=N)N)c2)cc1`, the inhibition at 10 µM in data set [1] was found to be 69%; in [2], 86%. Besides, the viability at 24 h, 10 µM in data set [3] came out at 34%.

With `COc1cccc(-c2ccc(NC(=N)N)nc2)c1`, the inhibition at 10 µM was determined as 25% in [1] and 4% in data set [2]. Besides, the viability at 24 h, 10 µM in data set [3] stood at 116%.

As for `N=C(N)Nc1cc(-c2ccccc2)ccn1`, the inhibition at 10 µM in data set [1] stood at 67%; in data set [2], 91%. In addition, the results for the IC50 in [6] and in data set [7] were 1.2 µM and 5.8 µM, respectively. The inhibition in vivo at 5 mg/kg in [8] turned out to be 39%; in data set [9], 52%. Moreover, the outcome in data set [4] was Active.

With `N=C(N)Nc1cccc(-c2cccc(Cl)c2)n1`, the results for the inhibition at 10 µM in [1] and in [2] were 74% and 80%, respectively. The viability at 24 h, 10 µM in [3] stood at 40%.

Consider `N=C(N)Nc1cccc(-c2ccccc2Cl)n1`, for which the inhibition at 10 µM in [1] is 47%; in data set [2], 9%. Besides, the IC50 in data set [6] is 19.2 µM; in data set [7], over 30 µM. Further, in data set [3], the viability at 24 h, 10 µM is 74%.

`COc1ccc(-c2cccc(NC(=N)N)n2)cc1`: the figures for the inhibition at 10 µM in [1] and in [2] were 27% and -6%, respectively. The viability at 24 h, 10 µM in data set [3] was 94%.

With `NC(N)=Nc1cc(-c2ccccc2)ccn1`, the viability at 24 h, 10 µM in [3] came to 72%. Moreover, the Activity result in data set [11] is given as “Non-Toxic”; in data set [14], 5%; in [15], “Non-Toxic”.

By inhibition is commonly meant the drop in the measured response relative to a control, in per cent. For orientation: IC50 means the concentration that inhibits the measured activity by half. The term inhibition in vivo denotes the change of the read-out against control, counted positive when it falls.
